Experiments:
SRA737 = compound: N#Cc1cnc(Nc2cc(NC[C@H]3CNCCO3)c(C(F)(F)F)cn2)cn1 [SRA737]; details: max 10 µM
How it was run: (§1)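 Viability was measured with CellTiter-Glo 2.0 luminescence after 72 hours of dosing at a final DMSO of typically 0.2%, and scaled between blank-well and DMSO-well means. Beforehand, cancer cell lines sat 24 hours at 37°C and 5% CO2 in 1536-well plates in 7.5 μl DMEM/F12 or RPMI with 10% FBS. A non-linear mixed effects model fitted two-parameter logistic curves to the dose responses. The single-agent IC50 comes from these fits.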

AZD6738 = compound: C[C@@H]1COCCN1C2=NC(=NC(=C2)C3(CC3)[S@](=N)(=O)C)C4=C5C=CNC5=NC=C4 [AZD6738]; details: max 10 µM
How it was run: as §1

Carboplatin = compound: C1CC(C1)(C(=O)[O-])C(=O)[O-].N.N.[Pt+2] [Carboplatin]; details: max 10 µM
How it was run: as §1

Trametinib = compound: CC(=O)Nc1cccc(-n2c(=O)n(C3CC3)c(=O)c3c(Nc4ccc(I)cc4F)n(C)c(=O)c(C)c32)c1 [Trametinib]; details: max 1 µM
How it was run: as §1

AZD8186 = compound: C[C@@H](Nc1cc(F)cc(F)c1)c1cc(C(=O)N(C)C)cc2c(=O)cc(N3CCOCC3)oc12 [AZD8186]
How it was run: as §1

Lapatinib = compound: CS(=O)(=O)CCNCc1ccc(-c2ccc3ncnc(Nc4ccc(OCc5cccc(F)c5)c(Cl)c4)c3c2)o1 [Lapatinib]; details: max 10 µM
How it was run: as §1

AZD2811 = compound: CCN(CCO)CCCOc1ccc2c(Nc3cc(CC(=O)Nc4cccc(F)c4)[nH]n3)ncnc2c1 [AZD2811]; details: max 1 µM
How it was run: as §1

Selumetinib = compound: Cn1cnc2c(F)c(Nc3ccc(Br)cc3Cl)c(C(=O)NOCCO)cc21 [Selumetinib]; details: max 10 µM
How it was run: as §1

Crizotinib = compound: C[C@@H](Oc1cc(-c2cnn(C3CCNCC3)c2)cnc1N)c1c(Cl)ccc(F)c1Cl [Crizotinib]; details: max 10 µM
How it was run: as §1

AZD0156 = compound: CN(C)CCCOc1ccc(-c2ccc3ncc4c(c3c2)n(C2CCOCC2)c(=O)n4C)cn1 [AZD0156]; details: max 3 µM
How it was run: as §1

Savolitinib = compound: C[C@@H](c1ccc2nccn2c1)n1nnc2ncc(-c3cnn(C)c3)nc21 [Savolitinib]; details: max 1 µM
How it was run: as §1

AZD5363 = compound: C1CN(CCC1(C(=O)N[C@@H](CCO)C2=CC=C(C=C2)Cl)N)C3=NC=NC4=C3C=CN4 [AZD5363]; details: max 10 µM
How it was run: as §1

5-Fluorouracil = compound: O=c1[nH]cc(F)c(=O)[nH]1 [5-Fluorouracil]; details: max 20 µM
How it was run: as §1

Dasatinib = compound: CC1=C(C(=CC=C1)Cl)NC(=O)C2=CN=C(S2)NC3=CC(=NC(=N3)C)N4CCN(CC4)CCO [Dasatinib]; details: max 2 µM
How it was run: as §1

SN-38 = compound: CCc1c2c(nc3ccc(O)cc13)-c1cc3c(c(=O)n1C2)COC(=O)[C@]3(O)CC [SN-38]; details: max 0.3 µM
How it was run: as §1

Paclitaxel = compound: CC(=O)O[C@H]1C(=O)[C@@]2(C)[C@H]([C@H](OC(=O)c3ccccc3)[C@]3(O)C[C@H](OC(=O)[C@H](O)[C@@H](NC(=O)c4ccccc4)c4ccccc4)C(C)=C1C3(C)C)[C@]1(OC(C)=O)CO[C@@H]1C[C@@H]2O [Paclitaxel]; details: max 3 µM
How it was run: as §1

Taselisib = compound: Cc1nc(-c2cn3c(n2)-c2ccc(-c4cnn(C(C)(C)C(N)=O)c4)cc2OCC3)n(C(C)C)n1 [Taselisib]; details: max 10 µM
How it was run: as §1

Olaparib = compound: O=C(c1cc(Cc2n[nH]c(=O)c3ccccc23)ccc1F)N1CCN(C(=O)C2CC2)CC1 [Olaparib]; details: max 10 µM
How it was run: as §1

Etoposide = compound: COc1cc([C@@H]2c3cc4c(cc3[C@@H](O[C@@H]3O[C@@H]5CO[C@@H](C)O[C@H]5[C@H](O)[C@H]3O)[C@H]3COC(=O)[C@H]23)OCO4)cc(OC)c1O [Etoposide]; details: max 10 µM
How it was run: as §1

AZD1775 = compound: C=CCn1c(=O)c2cnc(Nc3ccc(N4CCN(C)CC4)cc3)nc2n1-c1cccc(C(C)(C)O)n1 [AZD1775]; details: max 3 µM
How it was run: as §1

Doxorubicin = compound: COc1cccc2c1C(=O)c1c(O)c3c(c(O)c1C2=O)C[C@@](O)(C(=O)CO)C[C@@H]3O[C@H]1C[C@H](N)[C@H](O)[C@H](C)O1 [Doxorubicin]; details: max 1 µM
How it was run: as §1

AZD4320 = compound: CN(CC[C@H](CSC1=CC=CC=C1)NC2=C(C=C(C=C2)S(=O)(=O)NC(=O)C3=CC=C(C=C3)N4CCC(CC4)[C@H](C5=CC=CC=C5C6=CC=C(C=C6)Cl)O)S(=O)(=O)C(F)(F)F)CCO [AZD4320]; details: max 1 µM
How it was run: as §1

MK-2206 = compound: NC1(c2ccc(-c3nc4ccn5c(=O)[nH]nc5c4cc3-c3ccccc3)cc2)CCC1 [MK-2206]; details: max 10 µM
How it was run: as §1

AZD7648 = compound: Cc1cc2ncnn2cc1Nc1ncc2c(n1)n(C1CCOCC1)c(=O)n2C [AZD7648]; details: max 10 µM
How it was run: as §1

Gefitinib = compound: COc1cc2ncnc(Nc3ccc(F)c(Cl)c3)c2cc1OCCCN1CCOCC1 [Gefitinib]; details: max 10 µM
How it was run: as §1

AZD5991 = compound: Cc1c2c(nn1C)CSCc1cc(n(C)n1)CSc1cc(c3ccccc3c1)OCCCc1c(C(=O)O)n(C)c3c-2c(Cl)ccc13 [AZD5991]; details: max 1 µM
How it was run: as §1

Prexasertib = compound: COc1cccc(OCCCN)c1-c1cc(Nc2cnc(C#N)cn2)n[nH]1 [Prexasertib]; details: max 1 µM
How it was run: as §1

[1] = compound: O=C(Nc1ccc2[nH]nc(-c3ccncc3)c2c1)[C@@H]1CCN(CC(=O)N2CCN(c3ccc(-c4ncccn4)cc3)CC2)C1; details: max 5 µM
How it was run: as §1

Gemcitabine = compound: Nc1ccn([C@@H]2O[C@H](CO)[C@@H](O)C2(F)F)c(=O)n1 [Gemcitabine]; details: max 0.3 µM
How it was run: as §1

SG3199 = compound: CC1=CN2[C@@H](C1)C=NC3=CC(=C(C=C3C2=O)OC)OCCCCCOC4=C(C=C5C(=C4)N=C[C@@H]6CC(=CN6C5=O)C)OC [SG3199]; details: max 0.001 µM
How it was run: as §1

Alisertib = compound: COc1cc(Nc2ncc3c(n2)-c2ccc(Cl)cc2C(c2c(F)cccc2OC)=NC3)ccc1C(=O)O [Alisertib]; details: max 10 µM
How it was run: as §1

AZD5153 = compound: COc1nnc2ccc(N3CCC(c4ccc(OCCN5CCN(C)C(=O)[C@H]5C)cc4)CC3)nn12 [AZD5153]; details: max 1 µM
How it was run: as §1

Palbociclib = compound: CC(=O)c1c(C)c2cnc(Nc3ccc(N4CCNCC4)cn3)nc2n(C2CCCC2)c1=O [Palbociclib]; details: max 10 µM
How it was run: as §1

AZD1390 = compound: CC(C)n1c(=O)n(C)c2cnc3cc(F)c(-c4ccc(OCCCN5CCCCC5)nc4)cc3c21 [AZD1390]; details: max 0.3 µM
How it was run: as §1

Venetoclax = compound: CC1(C)CCC(CN2CCN(c3ccc(C(=O)NS(=O)(=O)c4ccc(NCC5CCOCC5)c([N+](=O)[O-])c4)c(Oc4cnc5[nH]ccc5c4)c3)CC2)=C(c2ccc(Cl)cc2)C1 [Venetoclax]; details: max 1 µM
How it was run: as §1

Capivasertib = compound: C1CN(CCC1(C(=O)N[C@@H](CCO)C2=CC=C(C=C2)Cl)N)C3=NC=NC4=C3C=CN4 [Capivasertib]; details: max 10 µM
How it was run: as §1

Row | Cell Line | IC50, cell viability 72 h (SRA737) [nM] | IC50, cell viability 72 h (AZD6738) [nM] | IC50, cell viability 72 h (Carboplatin) [nM] | IC50, cell viability 72 h (Trametinib) [nM] | IC50, cell viability 72 h (AZD8186; max 10 µM) [nM] | IC50, cell viability 72 h (Lapatinib) [nM] | IC50, cell viability 72 h (AZD2811) [nM] | IC50, cell viability 72 h (Selumetinib) [nM] | IC50, cell viability 72 h (Crizotinib) [nM] | IC50, cell viability 72 h (AZD0156) [nM] | IC50, cell viability 72 h (Savolitinib) [nM] | IC50, cell viability 72 h (AZD5363) [nM] | IC50, cell viability 72 h (5-Fluorouracil) [nM] | IC50, cell viability 72 h (Dasatinib) [nM] | IC50, cell viability 72 h (SN-38) [nM] | IC50, cell viability 72 h (Paclitaxel) [nM] | IC50, cell viability 72 h (Taselisib) [nM] | IC50, cell viability 72 h (Olaparib) [nM] | IC50, cell viability 72 h (Etoposide) [nM] | IC50, cell viability 72 h (AZD1775) [nM] | IC50, cell viability 72 h (Doxorubicin) [nM] | IC50, cell viability 72 h (AZD4320) [nM] | IC50, cell viability 72 h (MK-2206) [nM] | IC50, cell viability 72 h (AZD7648) [nM] | IC50, cell viability 72 h (Gefitinib) [nM] | IC50, cell viability 72 h (AZD5991) [nM] | IC50, cell viability 72 h (Prexasertib) [nM] | IC50, cell viability 72 h [1] [nM] | IC50, cell viability 72 h (Gemcitabine) [nM] | IC50, cell viability 72 h (SG3199) [nM] | IC50, cell viability 72 h (Alisertib) [nM] | IC50, cell viability 72 h (AZD5153) [nM] | IC50, cell viability 72 h (Palbociclib) [nM] | IC50, cell viability 72 h (AZD1390) [nM] | IC50, cell viability 72 h (Venetoclax) [nM] | IC50, cell viability 72 h (AZD8186; max 3 µM) [nM] | IC50, cell viability 72 h (Capivasertib) [nM]
1 | KINGS-1 (Low Grade Glioma) | > 10000 | > 10000 | > 10000 | > 1000 | > 10000 | > 10000 | > 1000 | > 10000 | > 10000 | > 3000 | > 1000 | > 10000 | > 20000 | > 2000 | > 300 | > 3000 | > 10000 | > 10000 | > 10000 | > 3000 | > 1000 | > 1000 | > 10000 | > 10000 | > 10000 | > 1000 | > 1000 | > 5000 | > 300 | > 1 | > 10000 | > 1000 | > 10000 | > 300 | > 1000 |  | 
2 | LC4-1 (B-Lymphoblastic Leukemia) | 3640 | 1280 | > 10000 | > 1000 | > 10000 | 6110 | 11.1 | > 10000 | 3000 | > 3000 | > 1000 | > 10000 | 9630 | > 2000 | 2.26 | 6.82 | > 10000 | > 10000 | 355 | 269 | 83.3 | 2.54 | > 10000 | > 10000 | > 10000 | 220 | 11.8 | 3950 | 30.9 | > 1 | 529 | 74.3 | 4230 | > 300 | 3.63 |  | 
3 | NB7 (Neuroblastoma) | > 10000 | > 10000 | > 10000 | > 1000 | > 10000 | > 10000 | > 1000 | > 10000 | > 10000 | > 3000 | > 1000 | > 10000 | > 20000 | > 2000 | 34.9 | 268 | > 10000 | > 10000 | 6520 | 963 | > 1000 | > 1000 | > 10000 | > 10000 | > 10000 | > 1000 | 72 | > 5000 | 141 | > 1 | 6060 | > 1000 | > 10000 | > 300 | > 1000 |  | 
4 | NCI-N87 (Gastric Carcinoma) | > 10000 | 4360 | > 10000 | 404 | > 10000 | 77 | > 1000 | > 10000 | > 10000 | > 3000 | > 1000 | 4230 | > 20000 | 1850 | 59.8 | 430 | 218 | > 10000 | 6740 | 1690 | 423 | > 1000 | 6770 | > 10000 | 1960 | > 1000 | 75.5 | > 5000 | 88.7 | > 1 | > 10000 | > 1000 | > 10000 | > 300 | > 1000 |  | 
5 | PF-382 (T-Lymphoblastic Leukemia) |  | 3220 |  | > 1000 |  | > 10000 | 34.4 | > 10000 | 4070 | > 3000 | > 1000 |  |  | 207 | 3.65 |  | 2780 | > 10000 |  | 331 | 85.8 | 175 | 1500 | > 10000 | > 10000 | > 1000 | 17.2 |  |  | > 1 | 391 | 79 | 2080 | > 300 | > 1000 | > 3000 | 2250

From the supplement of paper PMC11061612
